Data: PubChem BioAssay (NCI)
Values joined by “and” are separate entries in the source; they are usually repeats but may differ in a detail not shown here. Equal entries are not always repeated.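 At the GI50, growth is halved. At the TGI there is no net growth.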

Columns and labels:
Experiment in all cases: NCI anticancer screen, dose series, 384-well format
A498 renal = test system: A498 renal
A549 NSCLC = test system: A549 NSCLC
ACHN renal = test system: ACHN renal
BT-549 breast = test system: BT-549 breast
CAKI-1 renal = test system: CAKI-1 renal
COLO 205 colon = test system: COLO 205 colon
DU-145 prostate = test system: DU-145 prostate
EKVX NSCLC = test system: EKVX NSCLC
HCC-2998 colon = test system: HCC-2998 colon
HCT-116 colon = test system: HCT-116 colon
HCT-15 colon = test system: HCT-15 colon
HL-60(TB) leukemia = test system: HL-60(TB) leukemia
HOP-62 NSCLC = test system: HOP-62 NSCLC
HOP-92 NSCLC = test system: HOP-92 NSCLC
HS 578T breast = test system: HS 578T breast
HT29 colon = test system: HT29 colon
IGROV1 ovarian = test system: IGROV1 ovarian
KM12 colon = test system: KM12 colon
LOX IMVI melanoma = test system: LOX IMVI melanoma
M14 melanoma = test system: M14 melanoma
MALME-3M melanoma = test system: MALME-3M melanoma
MCF7 breast = test system: MCF7 breast
MDA-MB-231 breast = test system: MDA-MB-231 breast
MDA-MB-435 melanoma = test system: MDA-MB-435 melanoma
MDA-MB-468 breast = test system: MDA-MB-468 breast
MOLT-4 leukemia = test system: MOLT-4 leukemia
NCI-H226 lung = test system: NCI-H226 lung
NCI-H23 lung = test system: NCI-H23 lung
NCI-H322M lung = test system: NCI-H322M lung
NCI-H460 NSCLC = test system: NCI-H460 NSCLC
NCI-H522 lung = test system: NCI-H522 lung
NCI/ADR-RES ovarian = test system: NCI/ADR-RES ovarian
OVCAR-3 ovarian = test system: OVCAR-3 ovarian
OVCAR-4 ovarian = test system: OVCAR-4 ovarian
OVCAR-5 ovarian = test system: OVCAR-5 ovarian
OVCAR-8 ovarian = test system: OVCAR-8 ovarian
PC-3 prostate = test system: PC-3 prostate
RPMI-8226 leukemia = test system: RPMI-8226 leukemia
RXF 393 renal = test system: RXF 393 renal
SF-268 CNS = test system: SF-268 CNS
SF-295 CNS = test system: SF-295 CNS
SF-539 CNS = test system: SF-539 CNS
SK-MEL-28 melanoma = test system: SK-MEL-28 melanoma
SK-MEL-5 melanoma = test system: SK-MEL-5 melanoma
SK-OV-3 ovarian = test system: SK-OV-3 ovarian
SN12C renal = test system: SN12C renal
SNB-19 CNS = test system: SNB-19 CNS
SNB-75 CNS = test system: SNB-75 CNS
SR leukemia = test system: SR leukemia
T-47D breast = test system: T-47D breast
TK-10 renal = test system: TK-10 renal
U251 glioblastoma = test system: U251 glioblastoma
UACC-257 melanoma = test system: UACC-257 melanoma
UACC-62 melanoma = test system: UACC-62 melanoma

CON(C)C(=O)N1N=C(c2cc(F)ccc2F)SC1(CCCN)c1ccccc1 (stereo not drawn)
GI50 (A498 renal): < 0.01 µM
TGI (A498 renal): 14.5 µM and 13.2 µM
GI50 (A549 NSCLC): < 0.01 µM
TGI (A549 NSCLC): 18.6 µM and 18.7 µM
GI50 (ACHN renal): 11.2 µM and 1.63 µM
TGI (ACHN renal): 23.3 µM and 19.6 µM
GI50 (BT-549 breast): < 0.01 µM
TGI (BT-549 breast): 11.9 µM and 11.1 µM
GI50 (CAKI-1 renal): 2.26 µM and 2.08 µM
TGI (CAKI-1 renal): 19.2 µM and 19.3 µM
GI50 (COLO 205 colon): < 0.01 µM
TGI (COLO 205 colon): < 0.01 µM
GI50 (DU-145 prostate): < 0.01 µM
TGI (DU-145 prostate): < 0.01 µM
GI50 (EKVX NSCLC): < 0.01 µM
TGI (EKVX NSCLC): 15.6 µM and 14.8 µM
GI50 (HCC-2998 colon): < 0.01 µM
TGI (HCC-2998 colon): < 0.01 µM
GI50 (HCT-116 colon): < 0.01 µM
TGI (HCT-116 colon): 11.2 µM and 11.4 µM
GI50 (HCT-15 colon): < 0.01 µM
TGI (HCT-15 colon): 11.7 µM
GI50 (HL-60(TB) leukemia): < 0.01 µM
TGI (HL-60(TB) leukemia): < 0.01 µM
GI50 (HOP-62 NSCLC): < 0.01 µM
TGI (HOP-62 NSCLC): 14.5 µM and 13.8 µM
GI50 (HOP-92 NSCLC): 10.1 µM and 8.95 µM
TGI (HOP-92 NSCLC): 21.8 µM and 21.6 µM
GI50 (HS 578T breast): < 0.01 µM
TGI (HS 578T breast): < 0.01 µM
GI50 (HT29 colon): < 0.01 µM
TGI (HT29 colon): 1.15 µM and 1.31 µM
GI50 (IGROV1 ovarian): 1.84 µM and 1.13 µM
TGI (IGROV1 ovarian): 18.8 µM and 14.7 µM
GI50 (KM12 colon): < 0.01 µM
TGI (KM12 colon): 12.1 µM and 11.9 µM
GI50 (LOX IMVI melanoma): < 0.01 µM
TGI (LOX IMVI melanoma): 10.5 µM and 11.1 µM
GI50 (M14 melanoma): < 0.01 µM
TGI (M14 melanoma): < 0.01 µM
GI50 (MALME-3M melanoma): 1.19 µM and 1.26 µM
TGI (MALME-3M melanoma): 3.53 µM and 11.8 µM
GI50 (MCF7 breast): < 0.01 µM
TGI (MCF7 breast): 11.9 µM and 12.1 µM
GI50 (MDA-MB-231 breast): < 0.01 µM
TGI (MDA-MB-231 breast): 13.8 µM and 15.4 µM
GI50 (MDA-MB-435 melanoma): < 0.01 µM
TGI (MDA-MB-435 melanoma): < 0.01 µM
GI50 (MDA-MB-468 breast): < 0.01 µM
TGI (MDA-MB-468 breast): < 0.01 µM
GI50 (MOLT-4 leukemia): < 0.01 µM
TGI (MOLT-4 leukemia): < 0.01 µM
GI50 (NCI-H226 lung): 10.2 µM and 2.24 µM
TGI (NCI-H226 lung): 22 µM and 16.9 µM
GI50 (NCI-H23 lung): < 0.01 µM
TGI (NCI-H23 lung): 12.7 µM and 11.5 µM
GI50 (NCI-H322M lung): < 0.01 µM
TGI (NCI-H322M lung): 17.2 µM and 14.9 µM
GI50 (NCI-H460 NSCLC): < 0.01 µM
TGI (NCI-H460 NSCLC): < 0.01 µM
GI50 (NCI-H522 lung): < 0.01 µM
TGI (NCI-H522 lung): < 0.01 µM
GI50 (NCI/ADR-RES ovarian): 0.116 µM and 0.0175 µM
TGI (NCI/ADR-RES ovarian): 0.27 µM and 0.137 µM
GI50 (OVCAR-3 ovarian): < 0.01 µM
TGI (OVCAR-3 ovarian): < 0.01 µM
GI50 (OVCAR-4 ovarian): < 0.01 µM
TGI (OVCAR-4 ovarian): 14 µM and 12.6 µM
GI50 (OVCAR-5 ovarian): 0.0106 µM and < 0.01 µM
TGI (OVCAR-5 ovarian): 0.0842 µM and < 0.01 µM
GI50 (OVCAR-8 ovarian): < 0.01 µM
TGI (OVCAR-8 ovarian): 14.5 µM and 13.4 µM
GI50 (PC-3 prostate): < 0.01 µM
TGI (PC-3 prostate): 15.3 µM and 12.8 µM
GI50 (RPMI-8226 leukemia): < 0.01 µM
TGI (RPMI-8226 leukemia): < 0.01 µM
GI50 (RXF 393 renal): < 0.01 µM
TGI (RXF 393 renal): 17.9 µM and 17.8 µM
GI50 (SF-268 CNS): < 0.01 µM
TGI (SF-268 CNS): 15.7 µM and 15.3 µM
GI50 (SF-295 CNS): < 0.01 µM
TGI (SF-295 CNS): 12.8 µM and 13.1 µM
GI50 (SF-539 CNS): < 0.01 µM
TGI (SF-539 CNS): 10.2 µM
GI50 (SK-MEL-28 melanoma): 2.38 µM and 11.6 µM
TGI (SK-MEL-28 melanoma): 19.6 µM and 24 µM
GI50 (SK-MEL-5 melanoma): < 0.01 µM
TGI (SK-MEL-5 melanoma): < 0.01 µM
GI50 (SK-OV-3 ovarian): < 0.01 µM
TGI (SK-OV-3 ovarian): 12.2 µM and 11.9 µM
GI50 (SN12C renal): < 0.01 µM
TGI (SN12C renal): 14.7 µM and 16.6 µM
GI50 (SNB-19 CNS): < 0.01 µM
TGI (SNB-19 CNS): 11.7 µM and 7.12 µM
GI50 (SNB-75 CNS): < 0.01 µM
TGI (SNB-75 CNS): 16 µM and 15.9 µM
GI50 (SR leukemia): < 0.01 µM
TGI (SR leukemia): < 0.01 µM
GI50 (T-47D breast): 0.0138 µM and < 0.01 µM
TGI (T-47D breast): 18.3 µM and 18.1 µM
GI50 (TK-10 renal): 0.0117 µM
TGI (TK-10 renal): 17.4 µM
GI50 (U251 glioblastoma): < 0.01 µM
TGI (U251 glioblastoma): 10.9 µM and 11.2 µM
GI50 (UACC-257 melanoma): < 0.01 µM
TGI (UACC-257 melanoma): 2.29 µM and 2.47 µM
GI50 (UACC-62 melanoma): < 0.01 µM
TGI (UACC-62 melanoma): 16.4 µM and 16.1 µM
